Tests used:
[1] = tested on: CTLL2 cells; assay: CTLL2 cell proliferation bioactivity assay; format: cell-based; settings: 24 h; for EC50: CTLL2 cells, 20000 cells/well
Procedure: The biological activity of murine IL4 was determined by its ability to stimulate the proliferation of CTLL2 cells. […] After incubation at 37° C. for 24 h, cell proliferation was determined with Cell Titer Aqueous One Solution (Promega).

[2] = tested on: Fibrosarcoma Wehi-164; assay: Therapy of Wehi-164 fibrosarcoma-bearing mice; format: in vivo, mouse; settings: 4 cycles i.v. every 48 h, equimolar doses
Procedure: Fibrosarcoma Wehi-164 exponentially growing cells were harvested, repeatedly washed and re-suspended in serum-free medium prior to injection. The tumor cells were injected subcutaneously (5×10^6) in the right flank of Balb/c mice. Tumor weights (mg=mm^3) were calculated as follows: (length [mm]×width^2 [mm^2])/2.
Treatment started when tumors reached approximately 100 mg. Mice received 4 cycles of therapy, every 48 h starting from day 5 after tumor cell injection. L19-IL4 (SEQ ID NO:64) was administered i.v. at the dose of 130 μg/mouse; equimolar amounts of KSF-IL4 (130 μg/mouse) (SEQ ID NO:44), KSF-IL10 (150 μg/mouse) (SEQ ID NO:65) and L19-IL10 (150 μg/mouse) (SEQ ID NO:66) were administered. Control mice received sterile vehicle solution (PBS). The results are shown in FIG. 16 (mean tumour weight over time). The number of mice in each treatment group was 3-4.

[3] = target: T1, EDA domain of fibronectin (Homo sapiens, UniProt P02751); assay: Surface plasmon analysis (BIAcore) on EDA antigen-coated sensor chip; format: binding
T1 construct: surface plasmon analysis (BIAcore) on an EDA antigen-coated sensor chip
From the text: The fusion protein was expressed and purified to homogeneity as described for F8-IL4 above.

[4] = tested on: A20 lymphoma; assay: Therapy studies in A20 tumour-bearing mice; settings: A20, F8-IL4 vs KSF-IL4 study
From the text: (§1) Data represent mean tumour volumes (±SEM), n=5 mice per group. […] Data represent mean tumour volumes (±SEM), n=5 mice per group.
Differences in tumor volume, % ID/g and Tumor-to-blood ratio between therapeutic groups were compared using Graphpad Prism's repeated measures (mixed model) ANOVA analysis.
For this, as well as the other experiments described below, F9 teratocarcinoma (CRL-1720; ATCC, Molsheim Cedex, France), CT26 colon carcinoma (CRL-2638; ATCC, Molsheim Cedex, France) and A20 lymphoma (TIB-208; ATCC, Molsheim Cedex, France) were grown according to the supplier's protocol and tumour cells implanted subcutaneously in the flank using 25×10^6 cells (F9), 2×10^6 cells (CT26) or 8×10^6 cells (A20). F9 teratocarcinoma cells were implanted into 129/SvEv mice (Charles River, Sulzfeld, Germany), CT26 colon carcinoma cells were implanted into Balb/c mice (Elevage Janvier, Le Genest-St-Isle, France) and A20 lymphoma cells were implanted into Balb/c mice (Elevage Janvier, Le Genest-St-Isle, France). Mice were sacrificed when tumour volumes reached a maximum of 2000 mm^3.

[5] = tested on: F9 teratocarcinoma; assay: Quantitative biodistribution in F9 tumour-bearing mice; format: in vivo, mouse; settings: 15 μg radioiodinated protein i.v., 24 hours
Procedure: The in vivo targeting performance was assessed by quantitative biodistribution where 15 μg of radioiodinated fusion protein was injected i.v. into the lateral tail vein of immunocompetent 11-12 week old female Sv129Ev mice (obtained from Charles River [Germany]), bearing sub-cutaneously grafted F9 tumours (for labelling protocol, see (Pasche et al. 2011)). Mice were sacrificed 24 hours after injection, organs were excised, weighed and radioactivity was measured using a Packard Cobra γ counter.

[6] = tested on: tumour neovascular structures in murine F9, CT26 and A20 tumours; assay: Immunofluorescence on untreated tumour sections; design: species or system mouse; settings: biotinylated protein on F9, CT26 and A20 tumour sections
From the text: For detection streptavidin-Alexa Fluor 488 and anti-rat-Alexa Fluor 594 (Invitrogen) were used. Slides were mounted with fluorescent mounting medium (Dako) and analyzed with an Axioskop2 mot plus microscope (Zeiss).

[7] = tested on: endometriotic lesions in Balb/c mice; assay: Endometriosis model in Balb/c mice; format: in vivo, mouse; settings: 200 μg/mouse i.v. days 1, 4, 7; day 15; vs PBS
Procedure: Endometriosis was induced in sixty eight-week old female Balb/c mice according to the protocol described by Somigliana et al. (1999).
One day after the implantation of endometrial tissue, pairs of mice (who received tissue from the same donor) were treated either with intravenous (i.v.) injections of F8-murine IL4 (200 μg/mouse; SEQ ID NO: 21) or PBS (group 1); or with i.v. injections of KSF-murine IL4 (200 μg/mouse; SEQ ID NO: 44) or PBS (group 2). The same treatment was repeated at days 4 and 7. Mice were sacrificed at day 15.

[8] = tested on: CT26 colon carcinoma; assay: Therapy studies in CT26 tumour-bearing mice
From the text: as §1
In the description of the below experiments, data are expressed as the mean (±SEM). Differences in tumor volume, % ID/g and Tumor-to-blood ratio between therapeutic groups were compared using Graphpad Prism's repeated measures (mixed model) ANOVA analysis.
Mice were sacrificed when tumour volumes reached a maximum of 2000 mm^3.
In order to study a second immunocompetent mouse model of cancer, the inventors focused on Balb/c mice (obtained from Elevage Janvier [France]) bearing subcutaneous CT26 tumours of colorectal origin.

[9] = tested on: F9 teratocarcinoma; assay: Biodistribution of F8-hIL4 and F8-hIL4-N284Q in F9 tumour-bearing mice; format: in vivo, mouse; settings: 10 μg radioiodinated antibody i.v., 24 hours
Procedure: 11-12 weeks old female 129/SvEv mice were obtained from Charles River (Sulzfeld, Germany). Tumor cells were implanted subcutaneously in the flank of the mice using 25×10^6 cells.
The in vivo targeting performance of F8-hIL4, and its unglycosylated variant F8-hIL4-N284Q were evaluated in quantitative biodistribution studies. The antibodies were radioiodinated using […] and Chloramine T hydrate according to the protocol of Pasche et al. 2011. 10 μg of each radioiodiated antibody were injected into the lateral tail vein of the mice. Injected mice were sacrificed 24 hours after injection. Organs were then excised and radioactivity was counted in Cobra gamma counter (Packard, Meriden, Conn.).

[10] = tested on: F9 teratocarcinoma; assay: Therapy studies in F9 teratocarcinoma-bearing mice; format: in vivo, mouse; settings: mouse, in vivo
Procedure: In a dose finding study, F9 tumour-bearing mice were randomly grouped (n=5) and injected intravenously (i.v.) into the lateral tail vein when tumours were clearly palpable. […] The therapeutic antibodies were all dissolved in phosphate buffered saline (PBS) and this buffer was also used in the negative control treatment groups. The mice were monitored daily and tumour volume was measured with a calliper (volume=length×width^2×0.5).

T1 sequence (P02751 1727-1814 limits assumed): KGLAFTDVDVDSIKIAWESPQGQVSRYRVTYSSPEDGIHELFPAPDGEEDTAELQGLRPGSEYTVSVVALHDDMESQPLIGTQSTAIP

recombinant IL4: recombinant murine IL4 (eBioscience)
EC50 [1]: 0.028 nM

KSF-IL10: KSF antibody (hen egg lysozyme) conjugated to IL10; untargeted IL10
therapeutic activity (tumour weight) [2]: do not promote any significant therapeutic activity

KSF-IL4: antibody KSF (specific to hen egg lysozyme, negative control) in diabody format fused to murine interleukin 4 [reference compound]
affinity for the cognate antigen [3]: retained a high-affinity for the cognate antigen
statistical significance, tumour volume vs PBS [4]: not statistically significant
accumulation at the tumour site (% ID/g) [5]: not observed
recognition of tumour neovascular structures [6]: not
therapeutic activity (tumour weight) [2]: do not promote any significant therapeutic activity
EC50 [1]: 0.02 nM
biological cytokine activity ([1]; CTLL2 proliferation): comparable to that of recombinant murine IL4
number of the endometriotic lesions [7]: did not have a significant effect
volume of the endometriotic lesions [7]: did not have a significant effect
therapeutic performance ([8]; 90 μg i.v. every 48 h): not better than saline
statistical significance, tumour volume vs PBS ([8]; CT26, F8-IL4 vs KSF-IL4 study): not statistically significant

B1: F8-hIL4: F8 diabody fused to human IL4, glycosylated (protein)
chain: EVQLLESGGGLVQPGGSLRLSCAASGFTFSLFTMSWVRQAPGKGLEWVSAISGSGGSTYYADSVKGRFTISRDNSKNTLYLQMNSLRAEDTAVYYCAKSTHLYLFDYWGQGTLVTVSSGGSGGEIVLTQSPGTLSLSPGERATLSCRASQSVSMPFLAWYQQKPGQAPRLLIYGASSRATGIPDRFSGSGSGTDFTLTISRLEPEDFAVYYCQQMRGRPPTFGQGTKVEIKSSSSGSSSSGSSSSGHKCDITLQEIIKTLNSLTEQKTLCTELTVTDIFAASKNTTEKETFCRAATVLRQFYSHHEKDTRCLGATAQQFHRHKQLIRFLKRLDRNLWGLAGLNSCPVKEANQSTLENFLERLKTIMREKYSKCSS
modifications: Synthetic sequence Amino acid sequence of F8 - (human) IL4 of PCT/EP2014/053998
notes: F8 diabody fused to human IL4, glycosylated
accumulation at the tumor site (% ID/g) [9]: comparable preferential accumulation at the tumor site

B2: F8-hIL4-N284Q: unglycosylated F8-human IL4 mutant, asparagine 284 substituted with glutamine (protein)
chain: EVQLLESGGGLVQPGGSLRLSCAASGFTFSLFTMSWVRQAPGKGLEWVSAISGSGGSTYYADSVKGRFTISRDNSKNTLYLQMNSLRAEDTAVYYCAKSTHLYLFDYWGQGTLVTVSSGGSGGEIVLTQSPGTLSLSPGERATLSCRASQSVSMPFLAWYQQKPGQAPRLLIYGASSRATGIPDRFSGSGSGTDFTLTISRLEPEDFAVYYCQQMRGRPPTFGQGTKVEIKSSSSGSSSSGSSSSGHKCDITLQEIIKTLNSLTEQKTLCTELTVTDIFAASKQTTEKETFCRAATVLRQFYSHHEKDTRCLGATAQQFHRHKQLIRFLKRLDRNLWGLAGLNSCPVKEANQSTLENFLERLKTIMREKYSKCSS
modifications: Synthetic sequence Amino acid sequence of F8 - (human) IL4 N284Q mutant of PCT/EP2014/053998
notes: unglycosylated F8-human IL4 mutant, asparagine 284 substituted with glutamine
accumulation at the tumor site (% ID/g) [9]: comparable preferential accumulation at the tumor site

B3: L19-IL4: L19 diabody (anti-EDB of fibronectin) fused to murine IL4 (protein)
chain: EVQLLESGGGLVQPGGSLRLSCAASGFTFSSFSMSWVRQAPGKGLEWVSSISGSSGTTYYADSVKGRFTISRDNSKNTLYLQMNSLRAEDTAVYYCAKPFPYFDYWGQGTLVTVSSGGSGGEIVLTQSPGTLSLSPGERATLSCRASQSVSSSFLAWYQQKPGQAPRLLIYYASSRATGIPDRFSGSGSGTDFTLTISRLEPEDFAVYYCQQTGRIPPTFGQGTKVEIKSSSSGSSSSGSSSSGHIHGCDKNHLREIIGILNEVTGEGTPCTEMDVPNVLTATKNTTESELVCRASKVLRIFYLKHGKTPCLKKNSSVLMELQRLFRAFRCLDSSISCTMNESKSTSLKDFLESLKSIMQMDYS
modifications: Synthetic sequence Amino acid sequence of the L19-murine IL4 conjugate of PCT/EP2014/053998
therapeutic activity (tumour weight) [2]: shows therapeutic activity

B4: F8-IL12: IL12-based immunocytokine: murine IL12 fused to single chain F8 diabody (protein)
chain: MWELEKDVYVVEVDWTPDAPGETVNLTCDTPEEDDITWTSDQRHGVIGSGKTLTITVKEFLDAGQYTCHKGGETLSHSHLLLHKKENGIWSTEILKNFKNKTFLKCEAPNYSGRFTCSWLVQRNMDLKFNIKSSSSSPDSRAVTCGMASLSAEKVTLDQRDYEKYSVSCQEDVTCPTAEETLPIELALEARQQNKYENYSTSFFIRDIIKPDPPKNLQMKPLKNSQVEVSWEYPDSWSTPHSYFSLKFFVRIQRKKEKMKETEEGCNQKGAFLVEKTSTEVQCKGGNVCVQAQDRYYNSSCSKWACVPCRVRSGGGGSGGGGSGGGGSRVIPVSGPARCLSQSRNLLKTTDDMVKTAREKLKHYSCTAEDIDHEDITRDQTSTLKTCLPLELHKNESCLATRETSSTTRGSCLPPQKTSLMMTLCLGSIYEDLKMYQTEFQAINAALQNHNHQQIILDKGMLVAIDELMQSLNHNGETLRQKPPVGEADPYRVKMKLCILLHAFSTRVVTINRVMGYLSSAGSADGGEVQLLESGGGLVQPGGSLRLSCAASGFTFSLFTMSWVRQAPGKGLEWVSAISGSGGSTYYADSVKGRFTISRDNSKNTLYLQMNSLRAEDTAVYYCAKSTHLYLFDYWGQGTLVTVSSGGSGGEIVLTQSPGTLSLSPGERATLSCRASQSVSMPFLAWYQQKPGQAPRLLIYGASSRATGIPDRFSGSGSGTDFTLTISRLEPEDFAVYYCQQMRGRPPTFGQGTKVEIKSSSSGSSSSGSSSSGEVQLLESGGGLVQPGGSLRLSCAASGFTFSLFTMSWVRQAPGKGLEWVSAISGSGGSTYYADSVKGRFTISRDNSKNTLYLQMNSLRAEDTAVYYCAKSTHLYLFDYWGQGTLVTVSSGGSGGEIVLTQSPGTLSLSPGERATLSCRASQSVSMPFLAWYQQKPGQAPRLLIYGASSRATGIPDRFSGSGSGTDFTLTISRLEPEDFAVYYCQQMRGRPPTFGQGTKVEIK
modifications: Synthetic sequence Amino acid sequence of (murine)IL12-F8-F8 of PCT/EP2014/053998
notes: IL12-based immunocytokine: murine IL12 fused to single chain F8 diabody
single-agent therapeutic activity [10]: potent single-agent therapeutic activity
